Entries after “also recorded” stand apart in the source; their conditions may differ.
Columns and labels:
[1] = target: T1, AT4 receptor (Bos taurus, UniProt F1N1Q8); assay: 125I-AIV binding, aortic endothelial cell (BAEC) membranes; design: species or system bovine; settings: 0.6 nM 125I-AIV
T1 sequence (F1N1Q8 1-1022): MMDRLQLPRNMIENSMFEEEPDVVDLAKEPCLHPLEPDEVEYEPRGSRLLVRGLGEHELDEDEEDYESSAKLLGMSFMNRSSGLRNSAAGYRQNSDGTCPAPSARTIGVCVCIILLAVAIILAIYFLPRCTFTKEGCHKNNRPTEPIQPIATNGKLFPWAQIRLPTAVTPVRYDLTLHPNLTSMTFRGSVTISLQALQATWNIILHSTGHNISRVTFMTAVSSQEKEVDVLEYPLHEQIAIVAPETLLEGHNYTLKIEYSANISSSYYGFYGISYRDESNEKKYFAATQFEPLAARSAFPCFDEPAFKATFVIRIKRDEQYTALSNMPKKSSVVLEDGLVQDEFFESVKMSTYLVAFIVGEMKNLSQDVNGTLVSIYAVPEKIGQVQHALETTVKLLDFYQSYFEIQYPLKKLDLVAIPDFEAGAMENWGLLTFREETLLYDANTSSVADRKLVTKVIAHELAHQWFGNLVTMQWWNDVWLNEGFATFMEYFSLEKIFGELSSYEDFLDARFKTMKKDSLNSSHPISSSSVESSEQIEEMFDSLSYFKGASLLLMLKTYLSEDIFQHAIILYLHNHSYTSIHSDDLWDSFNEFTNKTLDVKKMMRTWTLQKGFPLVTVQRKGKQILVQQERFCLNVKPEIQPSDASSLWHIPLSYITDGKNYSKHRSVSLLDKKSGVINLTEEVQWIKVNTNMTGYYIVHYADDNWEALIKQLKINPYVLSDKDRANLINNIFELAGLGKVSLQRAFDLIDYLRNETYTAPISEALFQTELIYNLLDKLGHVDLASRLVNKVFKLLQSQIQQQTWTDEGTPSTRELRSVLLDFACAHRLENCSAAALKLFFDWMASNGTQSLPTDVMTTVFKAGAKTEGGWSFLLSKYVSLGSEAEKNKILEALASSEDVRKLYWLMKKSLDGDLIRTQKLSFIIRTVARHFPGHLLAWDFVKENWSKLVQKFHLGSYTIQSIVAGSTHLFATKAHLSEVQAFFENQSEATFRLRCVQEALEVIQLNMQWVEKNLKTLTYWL

[2] = system: AT1 receptors; assay: GTPγS effect on 125I-AII binding, rat vascular smooth muscle cell (RVSMC) membranes; settings: 0.5 nM 125I-AII
[3] = system: bovine endothelial cells; assay: Endothelial cell growth (thymidine incorporation) and EDRF production; format: cell-based
Description: Cells were grown at 37° C. in 35 mm culture plates […] under 5% CO2 /95% air in Dulbecco's Modified Eagle's Medium (DMEM) supplemented with 5 μg/ml insulin and 10% (v/v) newborn bovine serum (NBBS). […] Negative controls were also included using ethidium bromide (1 mM). The cells were harvested at various times, and cellular lysates were prepared for scintillation counting by lysing and washing the cells on glass fiber filters.
Bovine aortic endothelial cells were grown at 37° C. in 35 mm culture plates under 5% CO2 in air in Dulbecco's Modified Eagle's Medium (DMEM) supplemented with 5 μg/ml insulin and 10% (v/v) newborn bovine serum (NBBS). The medium was aspirated 10-12 hours after seeding and replaced with serum-free medium. The medium was again aspirated 10-12 hours later and replaced with either test or control medium. Control medium was DMEM with 5 µg/ml insulin and 2%, 5%, or 10% (v/v) NBBS as indicated. […] The medium was changed every 48 h (i.e., with supportive DMEM medium for the remainder of the experiment).
As an adjunct to the determination of cell numbers, thymidine incorporation was measured. […] This material was then filtered under vacuum through 2.4 cm glass fiber filters (GF/A, Whatman), and the filters were washed twice with 10 ml of absolute ethanol and assayed for radioactivity by scintillation counting.

[4] = target: T1, AT4 receptor; assay: 125I-AIV binding and competition, solubilized bovine adrenal cortical receptor
[5] = target: T1, AT4 receptor; assay: 125I-AIV binding and competition, bovine adrenal cortical membranes
[6] = system: cardiocytes; assay: Hypertrophic action of AII on cardiocytes; format: cell-based
[7] = system: rat kidney; assay: Renal cortical blood flow (laser doppler) and arterial pressure after infusion into the renal artery; format: in vivo
[8] = system: rats; assay: Passive avoidance conditioning after icv injection; format: in vivo, rat
[9] = target: T2, AT1 receptor (AII receptor) (Bos taurus, UniProt P25104); format: binding, bovine; settings: competition
T2 construct: from tissue; host or cells: bovine adrenal cortex membranes
T2 sequence (P25104 1-359): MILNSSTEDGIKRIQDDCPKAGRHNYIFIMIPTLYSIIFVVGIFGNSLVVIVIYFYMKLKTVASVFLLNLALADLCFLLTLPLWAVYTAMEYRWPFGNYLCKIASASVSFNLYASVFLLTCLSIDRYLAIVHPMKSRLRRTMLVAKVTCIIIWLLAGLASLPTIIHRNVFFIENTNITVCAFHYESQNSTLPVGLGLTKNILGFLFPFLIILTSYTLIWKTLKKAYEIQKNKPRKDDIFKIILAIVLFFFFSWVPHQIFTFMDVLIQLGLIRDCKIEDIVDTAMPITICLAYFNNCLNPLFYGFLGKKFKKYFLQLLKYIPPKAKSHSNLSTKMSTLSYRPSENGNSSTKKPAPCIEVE

[10] = system: AT4 receptor; format: binding, rat; settings: brain, heart, kidney, aorta, lung, liver, cultured smooth muscle cells
Description: A second major approach to defining separate and distinct binding sites was to examine their relative tissue and species distribution (Table 8).
*25 μg of membrane protein was incubated with 500,000 cpm of label.
Specific binding was defined as total […]
At this time, the significance of this finding is uncertain.

[11] = arterial and venous blood in man; cited from earlier work

Row | Structure (SMILES) | effect on 125I-AIV binding [1] | effect on 125I-AII binding [2] | EDRF production [3] | endothelial cell proliferation (thymidine incorporation) [3] | off-rate t1/2 [4] [h] | Bmax [5] | effect on hypertrophic action of AII [6] | effect on renal blood flow (in words) ([7]; infusion into renal artery) | effect of preinfusion on blood flow response to another ligand ([7]; rat, in vivo) | agonist / antagonist activity (in words) ([7]; renal blood flow response compared to AIV) | passive avoidance latency / cognitive effect (in words) [8] | Ki [9] [nM] | binding in rat tissues (in words) [10] | half-lives [11] [min]
1 | Nc1nc2c(ncn2[C@@H]2O[C@H](COP(=O)(O)OP(=O)(O)OP(O)(O)=S)[C@@H](O)[C@H]2O)c(=O)[nH]1 [GTPγS] | no effect; also recorded: did not inhibit (or alter) binding | inhibited | – | – | – | – | – | – | – | – | – | – | – | –
2 | CC[C@H](C)[C@H](NC(=O)[C@H](Cc1ccc(O)cc1)NC(=O)[C@@H](N)C(C)C)C(=O)N[C@@H](Cc1cnc[nH]1)C(=O)N1CCC[C@H]1C(=O)N[C@@H](Cc1ccccc1)C(=O)O [AIV, Val1 Tyr2 Ile3 His4 Pro5 Phe6] | – | – | stimulating production of endothelial cell relaxing factor (EDRF) | enhancing cellular proliferation | 4.873 | 3.82±1.12 | antagonizes the hypertrophic action of AII | profound and long-lasting increase in blood flow; also recorded: equally dramatic increase in flow; also recorded: dramatically increase renal blood flow and urine flow in a dose-dependent fashion | completely blocked the constrictive action of AII | full agnoistic activity | significantly elevated latency times | > 1000 | not been possible to demonstrate binding | 1.9
